Measured values: patent publication US11064699B2, “Condensed heterocyclic compound or salt thereof, agricultural and horticultural insecticide comprising the compound or the salt, and method for using the insecticide” (Nihon Nohyaku Co., Ltd., priority 2017, dated 2021)

Tests used:
Laodelphax striatellus = assay: Insecticidal test on Laodelphax striatellus (rice seedling dip); format: in vivo; conditions: 192 h, rice seedlings dipped 30 seconds, 3rd-instar larvae, 8 days after inoculation, read-out: insecticidal efficacy (corrected mortality rate), activity level
Excerpt: Insecticidal Test on Laodelphax striatellus
The condensed heterocyclic compounds represented by the general formula (1) of the present invention or salts thereof were separately dispersed in water and diluted to 500 ppm. Rice plant seedlings (variety: Nihonbare) were dipped in the agrochemical dispersions for 30 seconds. After air-dried, each seedling was put into a separate glass test tube and inoculated with ten 3rd-instar larvae of Laodelphax striatellus, and then the glass test tubes were capped with cotton plugs. At 8 days after the inoculation, the numbers of surviving larvae and dead larvae were counted, the corrected mortality rate was calculated according to the formula shown below, and the insecticidal efficacy was evaluated according to the criteria shown below. Corrected mortality rate (%)=100×(Survival rate in a non-treatment plot−Survival rate in a treatment plot)/Survival rate in a non-treatment plot [Math. 2] Corrected Mortality Rate A: the corrected mortality rate is 100%. B: the corrected mortality rate is 90 to 99%. C: the corrected mortality rate is 80 to 89%. D: the corrected mortality rate is 50 to 79%.

Plutella xylostella = assay: Insecticidal test on Plutella xylostella (dip of Chinese cabbage seedlings with laid eggs); format: in vivo; conditions: 144 h, seedlings with laid eggs dipped about 30 seconds, 25° C., 6 days after dip treatment, criteria of Test Example 2, read-out: insecticidal efficacy (corrected mortality rate), activity level
Excerpt: Insecticidal Test on Plutella xylostella
Adults of Plutella xylostella were released onto Chinese cabbage seedlings and allowed to lay eggs thereon. At 2 days after the release of the adults, the Chinese cabbage seedlings with laid eggs were dipped for about 30 seconds in agrochemical dispersions diluted to 500 ppm, each of which contained a different condensed heterocyclic compound represented by the general formula (1) of the present invention as an active ingredient. After air-dried, the seedlings were kept in a thermostatic chamber at 25° C. At 6 days after the dip treatment, the number of hatched larvae per plot was counted, the mortality rate was calculated according to the formula shown below, and the insecticidal efficacy was evaluated according to the criteria of Test Example 2. This test was conducted in triplicate using 10 adults of Plutella xylostella per plot. Corrected mortality rate (%)=100×(Number of hatched larvae in a non-treatment plot−Number of hatched larvae in a treatment plot)/Number of hatched larvae in a non-treatment plot [Math. 3]

Row | Structure (SMILES) | mortality at 500 ppm (Laodelphax striatellus) [%] | mortality at 500 ppm (Plutella xylostella) [%]
1 | CCS(=O)(=O)c1cc(-c2cccc(C(F)(F)F)c2)cnc1-c1nnc2cc(C(F)(F)F)ncn12 [Compound 2-36, 3-(3-(ethylsulfonyl)-5-(3-(trifluoromethyl)phenyl)pyridin-2-yl)-(7-trifluoromethyl)-[1,2,4]Triazolo[4,3-c]Pyrimidine] | 100 | 100
2 | CCS(=O)(=O)c1cc2ccc(C(F)(F)F)cc2nc1-c1nnc2cc(C(F)(F)C(F)(F)F)ncn12 [Compound 4-27, 3-(ethylsulfonyl)-2-(7-pentafluoroethyl)-[1,2,4]triazolo[4,3-c]pyrimidin-3-yl-7-(trifluoromethyl) quinoline] | 100 | 100
